Experimental data taken from patent publication US6897287B1, “Ro/SSA peptide reagents for diagnosis of autoantibodies” (Oklahoma Medical Research Foundation, priority 1990, dated 2005).
“Also recorded” adds a separate entry of the source. Where no end group is shown, it is not given here.

Assays:
[1] = test system: anti-Sm and anti-nRNP precipitin sera (IgG); experiment: Solid phase antipeptide assay of Sm B/B' and related peptides with Sm, nRNP precipitin positive sera; format: binding, human; details: for antigenicity / reactivity in words: sera 1/100, Sm and nRNP precipitin positive SLE patients
Method: Sera. Human sera form patients who satisfied the classification criteria of the American Rheumatism Association for SLE or normal age-matched, sex-matched controls were used in this study. Fifteen sera from lupus patients were tested. Ten of these sera tested contained antibodies that formed strong precipitin lines with both Sm and nRNP, three formed precipitin lines with only nRNP, one formed a precipitin line with Ro/SSA and La/SSB, and one formed a precipitin line with only Ro/SSA. All of these serologic findings were confirmed by appropriate molecular weight bands for the reported antigen being bound in immunoblot by the respective sera.
Solid-phase noncleavable peptide synthesis. The published sequence of Sm B/B′ was used to construct all the possible overlapping octapeptides. The amino acids used for peptide synthesis had Fmoc protected primary amino groups and t-butyl (or other appropriate group) protected side chains. Overlapping octapeptides were simultaneously synthesized at the rounded ends of radiation derivatized polyethylene pins that were arranged in the format of a 96 well microliter plate (Cambridge Research Biochemicals. Cambridge, UK and Coselco Mimotopes Pty Ltd. Victoria, Australia) The active esters of Fmoc, t-butyl amino acid solutions (30 mM) were solubilized in DMF that had […] added to a final concentration of 30 mM and dispensed into the wells of a microliter plate. Each amino acid was added as determined by the 240 amino acids of the Raji Sm B/B′ sequence. After 18 h of incubation, the pins were washed in DMF for 5 min. four times at 2 min each in methanol, and once again in DMF for 5 min. The Fmoc protecting groups were then removed from the newly added amino acid by a 20% piperidine/DMF bath for 30 min. These steps were repeated until all eight amino acids were added. After the final amino acid, the amino terminal groups of each peptide was acetylated by incubating the pins in a 5:2:1 (v/v/v) mixture of DMF:acetic anhydride: triethylamine for 90 min at room temperature. After this step the pins were again washed in DMF for 2 min, four times at 2 min each in methanol, and then air-dried for 10 min. Finally, side chain amino protecting groups were removed by […] (v/w/v) of trifluoracetic acid:phenol:ethanedithiol. Wash steps included 2 min in methylene chloride, two times at 5 min each in 5% […]/methylene chloride, and a final methylene chloride wash for 5 min. After drying for 10 min., pins were placed in distilled water for 2 min., transferred to a methanol bath for 18 h. and dried under vacuum for 18 h. This procedure was repeated to synthesize another set of the carboxyl-terminal 36 octapeptides to allow substantiation of the previous data. In addition other octapeptides, including the amino acid changes seen in the vanDam/Ohosone Proc. Natl. Acad. Sci. USA 86:4249 (1989) sequences, were also synthesized. Selected substitution and deletion sequences, along with similar sequences from other proteins, were also constructed. Control pins composed of amino acids in a random sequence were prepared that were not present in any of the Sm or nRNP antigen sequences. In addition, positive control pins were synthesized from a known reactive sequence of the La/SSB peptide.
Solid phase antipeptide assay. Wash steps and incubations were carried out in sealed plastic containers. Other assay steps were performed by lowering the pins into microliter plate wells. First, pins were blocked with 3% low-fat milk in PBS for 1 h at room temperature. Pins were then incubated in 1/100 dilutions of sera in 3% milk/PBS with 0.05% TWEEN® (surfactant) overnight at 4° C. in humidified sealed containers. The pin blocks were then washed four times with PBS with 0.05% TWEEN® (surfactant) for 10 min each with vigorous agitation. […]

[2] = test system: affinity purified anti-La/SSB antibodies; experiment: Pin ELISA of La/SSB octapeptides with affinity purified anti-La/SSB antibodies; format: binding, human; details: for enrichment of binding relative to the serum: affinity enriched preparation, patient E11, peak or average reactivities; for binding by affinity enriched anti-La/SSB preparation: preparation from patient E11
Method: Solid Phase Anti-peptide Assay. All steps were carried out by immersing the pin blocks into microtiter plate wells. Pins were incubated in blocking buffer (1% bovine serum albumin (BSA) in phosphate buffered saline (PBS), pH 7.2) for 1 h at room temperature and then in 1:100 dilutions of sera in diluent (1% BSA and 0.05% Tween in PBS) overnight at […] in humidified containers. Pin blocks were washed four times with wash buffer (0.05% Tween in PBS) for 10 min with agitation and then immersed for 1 h at room temperature in affinity purified goat anti-human-chain specific antibody conjugated to alkaline phosphatase (Sigma Chemical Co., St. Louis, Mo.) diluted 1:1000 in diluent. After washing as above, pins were incubated in para-nitrophenyl phosphate solution at 37° C. for 2 h. Color development was read at 410 nm on a DYNATECH® MR5000 ELISA plate reader.
Samples. Sera from five normal, healthy donors and ten patients with primary SS and/or SLE were screened by pin ELISA for antibodies binding to the La/SSB octapeptides. Eight of these ten patients had both anti-Ro/SSA and anti-La/SSB precipitin forming autoantibodies, and seven of these eight had borne children with congenital heart block (CCHB). Two patients had antibodies to Ro/SSA alone. Anti-La/SSB antibodies were affinity purified from the sera of two patients on La/SSB cross-linked immunosorbents as described by Horsfall, et al., J. Immunol. Meth. 104:43 (1987).
Anti-La/SSB antibodies from two patients have been affinity purified on La/SSB cross-linked immunosorbents. […] The affinity enriched preperation binds 17 of the 18 previously identified epitopes, the exception being epitope 17 (octapeptide 379); however, this preperation does bind octapeptides adjacent to epitope 17, particularly octapeptides 380 and 382. Those putative epitopes in which the binding is most enriched include epitopes 2, 3, 6, 9, 10, 12, 13 and 15. These same epitopes appear enriched whether peak or average reactivities for each putative epitope are compared. Essentially the same results have been obtained from an affinity enriched preparation of the anti-La/SSB from a second patient.

[3] = test system: antibody of patient serum; experiment: Solid phase assay of nRNP (70 kD, A, C) octapeptides with patient sera; format: binding, human; details: nRNP A sequences marked (*)
Text: The sequence of the 70 kD nuclear ribonucleoprotein (nRNP) is reported by R. A. Spritz, et al., in Nucleic Acids Res. 24: 10373-10391 (1987), the teachings of which are incorporated herein. The data analysis is done the same as for the Ro/SSA and La/SSB antigens. Each sequence identified represents the binding of antibody to octapetides that exceed arbitrary criteria in the solid phase assay. The identified antigenic regions are more than two standard deviations above the mean of normal sera and are bound by more than half of the patients. For the binding to the 70 kD peptide, the threshold in the assay is A410 of 0.380. The numbers in parentheses are the sequence positions of the first amino acid in the first octapeptide that exceeds the threshold. Each identified sequence is composed of one or more octapeptides. The number of octapeptides in each sequence is the length of the sequence […]. The underlined part of the sequence is the octapeptide that is bound most by the patient serum. In some cases, another octapeptide is essentially equivalent but not underlined.

[4] = test system: KSm 3 monoclonal autoantibody; experiment: Binding of monoclonal antibody KSm 3 to Sm B/B' octapeptides; parameters: species or system MRL lpr/lpr mouse; details: hybridoma supernatant
Text: (§1) Autoantibodies binding the Sm B and B′ peptides (B/B′) are commonly associated with systemic lupus erythernatosus in man and in MRL lpr/lpr mice. KSm 3 and KSm 5 were derived from an unmanipulated MRL lpr/lpr mouse using hybridoma monoclonal antibody technology. Supernatants containing KSm 3 and KSm 5 monoclonal antibodies were collected from cloned murine hybridoma cell lines in RPMI 1640 with 10% fetal bovine serum, glutamine, penicillin and streptomycin. These monoclonal autoantibodies are both of the IgG2a subclass. The linear antigenic regions of these two anti-Sm B/B′ murine monoclonal autoantibodies have been mapped using overlapping octapeptides. Unique epitopes are identified by each monoclonal. Monoclonal antibody KSm 5 recognizes the peptide, PPPGMRPP (amino acids 4-11 of SEQ ID NO:14), which is repeated three times in the Sm B polypeptide. […] Both of these regions of Sm B/B′ are major areas of antigericity for human anti-Sm autoantibodies. […] When the arginine in the sixth position PPPGMRPP (amino acids 4-11 of SEQ ID NO:14) is substituted KSm 5 binding is found in an unexpected subset of octapeptides. […] In contrast, binding of KSm 3 to PPPGIRPP (SEQ ID NO:122) is abolished when the sixth position arginine is substituted by any other amino acid. These two murine autoantibodies bind distinct linear epitopes of Sm B/B′ which are also bound by human anti-Sm B/B′ autoantibodies. […]

[5] = test system: sera that contain an anti-Sm precipitin in the absence of an anti-nRNP precipitin; experiment: Solid phase antipeptide assay with sera having anti-Sm precipitin alone; format: binding, human; details: anti-Sm precipitin without anti-nRNP precipitin
Method: Solid phase antipeptide assay. Wash steps and incubations were carried out in sealed plastic containers. Other assay steps were performed by lowering the pins into microliter plate wells. First, pins were blocked with 3% low-fat milk in PBS for 1 h at room temperature. Pins were then incubated in 1/100 dilutions of sera in 3% milk/PBS with 0.05% TWEEN® (surfactant) overnight at 4° C. in humidified sealed containers. The pin blocks were then washed four times with PBS with 0.05% TWEEN® (surfactant) for 10 min each with vigorous agitation. Next, each pin was incubated with anti-human gamma-chain specific IgG raised in a goat, affinity purified and conjugated to alkaline phosphatase (Jackson Immunoresearch Laboratories, West Grove, Pa.) at a {fraction (1/10,000)} dilution. Paranitrophenyl phosphate disodium was used as a substrate for alkaline phosphatase and plates were read at 405 nm with a MICROELISA Reader (Dynatech, Alexandria, Va.). Results for each plate were then standardized by comparison with positive control pins. The same control pins were used for all plates and were allowed to develop to a specific OD with a known concentration of a standard control sera.
All antigenic sites determined in this study require a positively charged amino acid. The size of these sites varies from two nonconsecutive basic amino acids to an entire octapeptide. […]

[6] = test system: KSm 5 monoclonal autoantibody; experiment: Binding of monoclonal antibody KSm 5 to Sm B/B' octapeptides; parameters: species or system MRL lpr/lpr mouse; details: hybridoma supernatant
Text: as §1

| enrichment of binding relative to the serum [2] | Substance | antigenicity / reactivity in words [1] | further results |
| --- | --- | --- | --- |
|  | DCDEFRKI (homo sapien) [octapeptide 44] | Binding is lost |  |
| most enriched | EGIILFKEKAK [epitope 13] |  |  |
|  | ERDRKREKRKPKS |  | proportion of sera binding [3]: bound by a subset of the sera tested |
| most enriched | GEIKWIDFVRGAK [epitope 6] |  |  |
| most enriched | IFVVFDSIE [epitope 9] |  |  |
| most enriched | KETDLLILFKDDYFA [epitope 10] |  |  |
|  | LVSRSLKMRQAF |  | proportion of sera binding [3]: bound by a subset of the sera tested |
|  | PAPGMRPP (homo sapien) | as antigenic as PPPGMRPP | original reactivity (binding) of PPPGMRPP retained ([1]; substituted or homologous octapeptides, six patient sera): over 90% |
|  | PGIRGPPP (homo sapien) |  | binding by KSm 3 in words [4]: binds best |
|  | PKNAKQPE (homo sapien) [octapeptide 53] | Binding is lost |  |
|  | PPP | no solely poly-proline sequence tested |  |
|  | PPPGIRGP (listed as Homo sapiens) | bound by all the Sm, nRNP sera tested | binding by KSm 3 in words [4]: binds best |
|  | PPPGM (homo sapien; (3)..(10) Binding site) |  | reactivity to the PPPGMRPP motif destroyed ([1]; deletion peptides, six patient sera): Greater than 60% |
|  | PPPGMIPP (homo sapien) | not antigenic; also recorded: does not bind | antigenicity / reactivity in words ([1]; listed as nRNP A): relatively no reactivity |
|  | PPPGMR (not fully specified) | does not appear to significantly alter binding |  |
|  | PPPGMRP (PPPGMXP; homo sapien; (3)..(10) Binding site) | does not appear to significantly alter binding |  |
|  | PPPGMRPP (listed as Homo sapiens) | especially antigenic; also recorded: consistently the most immunoreactive; also recorded: similarly antigenic in each; also recorded: major linear antigenic epitope | binding in words [5]: does not appear to be bound; binding by KSm 5 in words [6]: recognizes |
|  | PPPP (homo sapien) | no solely poly-proline sequence tested |  |
|  | PPPPP (homo sapien) | no solely poly-proline sequence tested |  |
| most enriched | REDLHILF [epitope 15] |  |  |
| most enriched | TDFNVIVEA [epitope 12] |  |  |
| most enriched | WVPLEIMIKFNR [epitope 3] |  |  |
|  | octapeptide 380: La/SSB octapeptide adjacent to epitope 17, starting at amino acid 380 (GPVKRARE; UniProt P05455 380-387, looked up, fragment) |  | binding by affinity enriched anti-La/SSB preparation [2]: does bind |
|  | octapeptide 382: La/SSB octapeptide adjacent to epitope 17, starting at amino acid 382 (VKRAREET; UniProt P05455 382-389, looked up, fragment) |  | binding by affinity enriched anti-La/SSB preparation [2]: does bind |

| Substance | enrichment of binding relative to the serum [2] | antigenicity / reactivity in words [1] | further results |
| --- | --- | --- | --- |
| ICHQIEYYFGDFNLPRDKFLK [epitope 2] | most enriched |  |  |
